Counter-ions that a name gives are not always drawn.
Molecular target: T1, human 5-HT5A receptor (Homo sapiens, UniProt P47898)
T1 construct: expressed in transfected cells; membrane preparation
Test: Test on a human 5-HT5A receptor binding inhibition ([3H]5-CT)
Details: membrane from HEK293 cells expressing human 5-HT5A receptor; Ki calculated from IC50 and Kd 4.95 nM
Experimental: Acquisition of HEK293 cells for forced expressions of a human 5-HT5A receptor
The ORF (open reading frame; protein coding region) of a human 5-HT5A receptor (Genbank AF498985) was cloned from a human hippocampus cDNA library, and then inserted into a pCR2.1 vector (Invitrogen), and Escherichia coli containing the plasmid was cultured in a large amount. Next, the full-length cDNA sequence of the human 5-HT5A receptor was analyzed, and recombined into a pcDNA3.1 vector (Invitrogen) as an expression vector and cultured in a large amount. HEK293 established cells (ATCC) derived from the human fetal kidney were seeded, the expression plasmid (1 μg) obtained above were added thereto with LIPOFECTAMINE 2000 (Invitrogen; 2 μl), the gene was transfected into HEK293 cells, and the expression cells were screened with a drug-resistant marker, Geneticin (G418 sulfate 500 μg/ml; Kanto Chemical Co., Inc.). Thus prepared recombinant cells which express the gene were cultured in a medium containing D-MEM (Dulbecco's modified eagle medium, Sigma), 10% FCS (Fetal calf serum: fetal bovine serum), 1% Pc./Sm (Penicillin/Streptomycin, Invitrogen), and 500 μg/ml G418 for 3 days. These experimental operations follow an manual for gene operation experiment and an instruction appended in a reagent, and the like, such as a known method (Sambrook, J. et al, Molecular Cloning—A Laboratory Manual”, Cold Spring Harabor laboratory, NY, 1989).
(1) Preparation of a Membrane from HEK293 Cells for Forced Expressions of a Human 5-HT5A Receptor
HEK293 cells for forced expressions of a human 5-HT5A receptor were cultured in a F500 plate, and scraped with a scraper. After centrifugation, a precipitate was collected, and an incubation buffer (50 mM Tris (HCl) (pH 7.4), 10 mM MgSO4, and 0.5 mM EDTA (ethylenediamine tetraacetic acid)) were added thereto. After homogenization, it was further centrifuged, and the precipitate was added with the incubation buffer, followed by thoroughly suspending. This operation was repeated, and a protein concentration was measured, thereby completing the preparation of a membrane.
(2) Test on a Human 5-HT5A Receptor Binding Inhibition
A solution of a compound to be tested and 100 μM 5-CT (5-carboxamidetriptamine) in DMSO was added to a 96-well plate at 2 μl/well, and suspended in an incubation buffer, and a membrane from HEK293 cells for forced expressions of a human 5-HT5A receptor prepared at 200 μg/ml was added at 100 μl/well. After incubation at room temperature for 15 minutes, a [^3H]5-CT solution (2 nM [^3H]5-CT, incubation buffer) was added thereto at 100 μl/well.
Separately, 100 μl of the solution was distributed into a liquid scintillation vial, and 2 ml of Aquasol II (registered trademark) was added thereto, followed by stirring. Then, a radioactivity was measured by a liquid scintillation counter. It was incubated at 37° C. for 60 minutes. The reaction mixture was sucked into 96-well GF/C filter plate that had been pre-treated with 0.2% polyethyleneimine, and washed six times with an ice-cooled, 50 mM Tris (pH 7.5) buffer. The GF/C filter plate was dried.
Microscint TMPS (registered trademark) was added thereto at 40 μl/well. A radioactivity remaining on the GF/C filter plate was measured by a top counter.
The [^3H]5-CT binding inhibiting activity by the compound to be tested in each experiment was determined as an IC50 value with a radioactivity upon addition of DMSO alone being 0% inhibition, and a radioactivity upon addition of 1 μM 5-CT being 100% inhibition. Separately, a Ki value was calculated from the Kd value of the [^3H]5-CT determined from Scatchard analysis, by the following equation.
Ki=IC50(1+Concentration of ligands added/Kd(4.95 nM))

T1 sequence (P47898 whole entry): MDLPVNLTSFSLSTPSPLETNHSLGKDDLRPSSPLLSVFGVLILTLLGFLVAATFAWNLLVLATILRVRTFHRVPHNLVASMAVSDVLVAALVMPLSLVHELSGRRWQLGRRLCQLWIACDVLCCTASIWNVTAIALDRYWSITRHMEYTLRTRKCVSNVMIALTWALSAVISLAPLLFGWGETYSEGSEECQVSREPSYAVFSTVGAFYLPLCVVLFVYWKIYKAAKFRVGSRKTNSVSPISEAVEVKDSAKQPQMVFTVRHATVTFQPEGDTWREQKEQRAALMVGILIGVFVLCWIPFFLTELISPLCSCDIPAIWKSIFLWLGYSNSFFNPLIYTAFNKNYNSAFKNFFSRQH

Row | Ki | Compound
1 | 30 to 300 nM | COc1ccccc1C1=CC(C)(C)Oc2ccc(C(=O)N=C(N)N)cc21 [Example 1-01, N-(diaminomethylene)-4-(2-methoxyphenyl)-2,2-dimethyl-2H-chromene-6-carboxamide hydrochloride]
2 | 3 to 30 nM | COCCN/C(N)=N/C(=O)c1ccc2c(c1)C(c1c(F)cccc1F)=CCO2 [Example 1-03, N-{1-amino[(2-methoxyethyl)amino]methylene}-4-(2,6-difluorophenyl)-2H-chromene-6-carboxamide hydrochloride]
3 | 30 to 300 nM | CC1(C)C=C(c2ccccc2)c2cc(C(=O)N=C(N)N)ccc2O1 [Example 1-04]
4 | 0.97 nM | NC(N)=NC(=O)c1ccc2c(c1)C(c1ccccc1)=C(F)CO2 [Example 1-14]
5 | 3 to 30 nM | NC(N)=NC(=O)c1ccc2c(c1)C(c1ccccc1C(F)(F)F)=CCO2 [Example 1-15]
6 | 3 to 30 nM | N#Cc1ccccc1C1=CCOc2ccc(C(=O)N=C(N)N)cc21 [Example 1-21]
7 | 0.3 to 3 nM | NC(N)=NC(=O)c1ccc2c(c1)C(c1ccccc1O)=CCO2 [Example 1-22]
8 | 3 to 30 nM | NC(N)=NC(=O)c1ccc2c(c1)C(c1cc(F)cc(F)c1)=CCO2 [Example 1-46]
9 | 3 to 30 nM | N#Cc1cc(F)ccc1C1=CCOc2ccc(C(=O)N=C(N)N)cc21 [Example 1-48]
10 | 30 to 300 nM | N#Cc1cc(C2=CCOc3ccc(C(=O)N=C(N)N)cc32)ccc1F [Example 1-49]
11 | 3 to 30 nM | COc1ccc(F)cc1C1=CCOc2ccc(C(=O)N=C(N)N)cc21 [Example 1-50]
12 | 0.3 to 3 nM | NC(N)=NC(=O)c1ccc2c(c1)C(c1ccc(Cl)cc1Cl)=CCO2 [Example 1-51]
13 | 3 to 30 nM | NC(N)=NC(=O)c1ccc2c(c1)C(c1cccc(C(F)(F)F)c1)=CCO2 [Example 1-52]
14 | 3 to 30 nM | NC(N)=NC(=O)c1ccc2c(c1)C(c1cc(F)c(F)cc1F)=CCO2 [Example 1-53]
15 | 0.3 to 3 nM | NC(N)=NC(=O)c1ccc2c(c1)C(c1ccc(Cl)cc1F)=CCO2 [Example 1-54]
16 | 0.3 to 3 nM | NC(N)=NC(=O)c1ccc2c(c1)C(c1ccc(F)cc1Cl)=CCO2 [Example 1-55]
17 | 3 to 30 nM | NC(N)=NC(=O)c1ccc2c(c1)C(c1cc(C(F)(F)F)ccc1F)=CCO2 [Example 1-65]
18 | 30 to 300 nM | Cn1cc(C2=CCOc3ccc(C(=O)N=C(N)N)cc32)cn1 [Example 1-66]
19 | 0.3 to 3 nM | CC1=C(c2c(F)cc(F)cc2F)c2cc(C(=O)N=C(N)N)ccc2OC1 [Example 1-67]
20 | 0.3 to 3 nM | CC1C=C(c2c(F)cc(F)cc2F)c2cc(C(=O)N=C(N)N)ccc2O1 (stereo not shown) [Example 1-71]
21 | 3 to 30 nM | CC1C=C(c2ccc(C#N)cc2)c2cc(C(=O)N=C(N)N)ccc2O1 (stereo not shown) [Example 1-72]
22 | 3 to 30 nM | N/C(=N\C(=O)c1ccc2c(c1)C(c1c(F)cccc1F)=CCO2)NCC1CC1 [Example 1-76]

Row | Ki | Compound
23 | 3 to 30 nM | COc1cc(F)c(F)cc1C1=CCOc2ccc(C(=O)N=C(N)N)cc21 [Example 1-79]
24 | 3 to 30 nM | NC(N)=NC(=O)c1ccc2c(c1)C(c1ccc(F)c(Cl)c1)=CCO2 [Example 1-80]
25 | 0.3 to 3 nM | NC(N)=NC(=O)c1ccc2c(c1)C(c1cccc(Cl)c1F)=CCO2 [Example 1-81]
26 | 0.3 to 3 nM | Cc1ccc(Cl)c(C2=CCOc3ccc(C(=O)N=C(N)N)cc32)c1F [Example 1-82]
27 | 30 to 300 nM | NC(N)=NC(=O)c1ccc2c(c1)C(c1ccc(C(F)(F)F)cc1C(F)(F)F)=CCO2 [Example 1-83]
28 | 3 to 30 nM | NC(N)=NC(=O)c1cc(F)c2c(c1)C(c1c(F)cc(F)cc1F)=CCO2 [Example 1-85]
29 | 3 to 30 nM | COc1ccccc1C1=CCOc2c(F)cc(C(=O)N=C(N)N)cc21 [Example 1-86]
30 | 30 to 300 nM | N#Cc1ccc(C2=CCOc3c(F)cc(C(=O)N=C(N)N)cc32)cc1 [Example 1-87]
31 | 0.3 to 3 nM | Cc1ccc(C2=CCOc3ccc(C(=O)N=C(N)N)cc32)c(Cl)c1 [Example 1-91]
32 | 0.3 to 3 nM | Cc1cc(Cl)ccc1C1=CCOc2ccc(C(=O)N=C(N)N)cc21 [Example 1-92]
33 | 0.3 to 3 nM | NC(N)=NC(=O)c1ccc2c(c1)C(c1c(F)cccc1Cl)=CCO2 [Example 1-96]
34 | 0.3 to 3 nM | NC(N)=NC(=O)c1ccc2c(c1)C(c1cccc(F)c1Cl)=CCO2 [Example 1-102]
35 | 0.3 to 3 nM | NC(N)=NC(=O)c1ccc2c(c1)C(c1cc(F)ccc1Cl)=CCO2 [Example 1-103]
36 | 30 to 300 nM | NC(N)=NC(=O)c1ccc2oc(=O)cc(-c3c(F)cc(F)cc3F)c2c1 [Example 1-104]
37 | 3 to 30 nM | CC1(C)C=C(c2ccc(F)cc2F)c2cc(C(=O)N=C(N)N)ccc2O1 [Example 1-105]
38 | 3 to 30 nM | CC1(C)C=C(c2c(F)cccc2F)c2cc(C(=O)N=C(N)N)ccc2O1 [Example 1-109]
39 | 30 to 300 nM | CC1(C)C=C(c2ccc(F)cc2)c2cc(C(=O)N=C(N)N)ccc2O1 [Example 1-110]
40 | 0.3 to 3 nM | COc1cc2c(cc1C(=O)N=C(N)N)C(c1c(F)cc(F)cc1F)=CCO2 [Example 1-118]
41 | 30 to 300 nM | CC1(C)C=C(c2ccc(F)c(F)c2F)c2cc(C(=O)N=C(N)N)ccc2O1 [Example 1-119]
42 | 30 to 300 nM | CC1(C)C=C(c2cc(F)c(F)cc2F)c2cc(C(=O)N=C(N)N)ccc2O1 [Example 1-120]
43 | 3 to 30 nM | NC(N)=NC(=O)c1ccc2c(c1)C(c1c(F)cc(F)cc1F)=CC1(CCCC1)O2 [Example 1-121]
44 | 3 to 30 nM | CC1C=C(c2c(F)cccc2F)c2cc(C(=O)N=C(N)N)ccc2O1 (stereo not shown) [Example 1-126]

Row | Ki | Compound
45 | 30 to 300 nM | CC1C=C(c2cccnc2Cl)c2cc(C(=O)N=C(N)N)ccc2O1 (stereo not shown) [Example 1-127]
46 | 30 to 300 nM | CC1C=C(c2cccnc2)c2cc(C(=O)N=C(N)N)ccc2O1 (stereo not shown) [Example 1-128]
47 | 30 to 300 nM | CC1C=C(c2ccncc2)c2cc(C(=O)N=C(N)N)ccc2O1 (stereo not shown) [Example 1-133]
48 | 30 to 300 nM | CC1C=C(c2cccnc2F)c2cc(C(=O)N=C(N)N)ccc2O1 (stereo not shown) [Example 1-134]
49 | 30 to 300 nM | CC1C=C(c2ccc(F)c(F)c2)c2cc(C(=O)N=C(N)N)ccc2O1 (stereo not shown) [Example 1-146]
50 | 30 to 300 nM | CC1C=C(c2ccc(Cl)nc2Cl)c2cc(C(=O)N=C(N)N)ccc2O1 (stereo not shown) [Example 1-147]
51 | 30 to 300 nM | COc1cccc(C#N)c1C1=CC(C)Oc2ccc(C(=O)N=C(N)N)cc21 (stereo not shown) [Example 1-165]
52 | 3 to 30 nM | CC1C=C(c2cccs2)c2cc(C(=O)N=C(N)N)ccc2O1 (stereo not shown) [Example 1-166]
53 | 3 to 30 nM | CC1C=C(c2ccsc2)c2cc(C(=O)N=C(N)N)ccc2O1 (stereo not shown) [Example 1-167]
54 | 3 to 30 nM | NC(N)=NC(=O)c1ccc2c(c1)C(c1ccoc1)=CCC2 [Example 2-01, N-(diaminomethylene)-8-(3-furyl)-5,6-dihydronaphthalene-2-carboxamide methane sulfonate]
55 | 3 to 30 nM | COc1cccc(C2=CCCc3ccc(C(=O)N=C(N)N)cc32)c1 [Example 2-05]
56 | 30 to 300 nM | NC(N)=NC(=O)c1ccc2c(c1)C(c1ccc(Oc3ccccc3)cc1)=CCC2 [Example 2-07]
57 | 3 to 30 nM | NC(N)=NC(=O)c1ccc2c(c1)C(c1cccc(F)c1)=CCC2 [Example 2-08]
58 | 0.3 to 3 nM | NC(N)=NC(=O)c1ccc2c(c1)C(c1ccccc1F)=CCC2 [Example 2-09]
59 | 3 to 30 nM | NC(N)=NC(=O)c1ccc2c(c1)C(c1cccc(Cl)c1)=CCC2 [Example 2-10]
60 | 0.3 to 3 nM | NC(N)=NC(=O)c1ccc2c(c1)C(c1ccsc1)=CCC2 [Example 2-19]
61 | 3 to 30 nM | NC(N)=NC(=O)c1ccc2c(c1)C(c1ccco1)=CCC2 [Example 2-20]
62 | 0.3 to 3 nM | NC(N)=NC(=O)c1ccc2c(c1)C(c1cccs1)=CCC2 [Example 2-21]
63 | 0.3 to 3 nM | N#Cc1ccc(C2=CCCc3ccc(C(=O)N=C(N)N)cc32)cc1 [Example 2-25]
64 | 30 to 300 nM | NC(=O)c1cccc(C2=CCCc3ccc(C(=O)N=C(N)N)cc32)c1 [Example 2-30]

From US20110207729A1, “BICYCLIC ACYLGUANIDINE DERIVATIVE” (ASTELLAS PHARMA INC., priority 2007, published 2011)
